Data published in patent publication US10016515B2, “DMA, a bis-benzimidazole, confers radioprotection to the intestine via Akt/NFκB dual pathway activation” (Jawaharlal Nehru University, priority 2016, dated 2018).
Where two headings read alike, the source gives them in different places.

Legend:
Balb/c intestinal cells = test: Cell proliferation by BrdU labeling, flow cytometry; format: in vivo, mouse
Procedure: S phase cells were labeled in vivo by administering BrdU (i.p., 100 mg/kg) to each mouse 2 h before euthanasia. Mice were euthanized 3 days after irradiation and small intestine was rapidly dissected, chopped into homogeneous solution by straining with 70μ strainer and fixed in 70% ethanol. Cells stained with 0.5 mL of RNase (2 mg/mL) and 0.5 mL of propidium iodide (0.1% in 0.6% Triton X-100 in PBS) for 30 min in dark. Samples were then analysed on a FACS Calibur flow-cytometer (Becton Dickinson).

[1] = test system: melanoma bearing Balb/c mice; conditions: 300 mg/kg oral (Nimesh et al. 2015); cited from earlier work
[2] = test system: Balb/c mice and tumor bearing mice tissues; test: Tissue histopathology after 8 Gy TBI; format: in vivo, mouse
Procedure: The hepatic, spleen and small intestine specimens were collected from Balb/c mice and tumor bearing mice three days after 8 Gy TBI with or without pre-treatment with DMA (50 mg/kg) 2 hour before TBI. Tissue specimens were fixed in 10% buffered formalin, embedded in paraffin, sectioned and stained with H&E and examined using an upright trinocular microscope attached to a CCD camera.

[3] = test system: Akt/NFκB pathway in Balb/c mice intestine tissue; test: Immunoblot analysis and Akt kinase assay in intestine tissue; format: in vivo, mouse
Procedure: HEK293, MRC5 and A549 cells were treated as indicated earlier. The cell pellet was resuspended in RIPA buffer and allowed to swell on ice for 30 min. Balb/c intestine tissue and tumor tissues were homogenized in RIPA buffer. Protein concentration was determined using Bradford's Assay (Bangalore Genei). Western blot was performed using standard protocols with primary antibodies against Akt, pAkt (Ser-473), […], mTOR, p70, Bad, PTEN, IKKα/β, p IKKα/β, p53, Bcl2, GAPDH, and NFκB (p65) (Cell Signalling) and horseradish peroxidase-conjugated mouse or rabbit secondary antibody (Abcam). Signals were detected using enhanced chemiluminescence (ECL system, Pierce) on X-ray film.
(§1) Akt kinase activity was determined using Akt Kinase Assay Kit (Nonradioactive) (Cell Signaling Technology, Cat. #9840) following the manufacturer's instructions.

[4] = test system: Akt in MRC5 and A549 cells; test: Akt kinase assay in cell lines; format: cell-based, human; conditions: DMA+Radiation vs control and radiation
Procedure: as §1

[5] = test system: Akt/NFκB pathway in melanoma tissue of mice; test: Immunoblot analysis in tumor tissue; format: in vivo, mouse
Procedure: EAT and B16F10 melanoma cell line were harvested and 10×10^6 and 0.8×10^6 cells respectively were injected subcutaneously in the Balb/c mice (n=24) on the right thigh. When tumors reached 0.5 cm^3 in volume, animals were randomized and divided into 4 different groups. The first test group was treated with 50 mg/kg, i.v. DMA, second test group subjected to 8 Gy TBI. Third group received 50 mg/kg, i.v. DMA and 8 Gy TBI both. The control group was similarly administered normal saline (0.1 ml, i.v.). On every alternate days, tumor-bearing thigh of each animal was shaved, and the longest (1) and shortest diameter (b) of the tumors along with height (h) were measured with the help of a vernier calliper. Tumor weight of each animal was calculated using the formula l*b*h/2.
HEK293, MRC5 and A549 cells were treated as indicated earlier. The cell pellet was resuspended in RIPA buffer and allowed to swell on ice for 30 min. Balb/c intestine tissue and tumor tissues were homogenized in RIPA buffer. Protein concentration was determined using Bradford's Assay (Bangalore Genei). […] Signals were detected using enhanced chemiluminescence (ECL system, Pierce) on X-ray film.

Balb/c mice = format: in vivo
Procedure: Balb/c mice with or without DMA treatment were placed in a specially designed, well-ventilated acrylic container and subjected to whole-body irradiation at 5, 6, 8, 9 or 10 Gray (Gy) in a single fraction.
The mice were grouped as follows: Group 1, Sham control (normal saline treated); Group 2, radiation control (whole body exposure to 8 Gy); Group 3, treated with increasing doses (100, 150, 200, 450 and 600 mg/kg bw) of DMA 2 h prior to whole body exposure to 8 Gy and Group 4 treated with similar DMA doses only. Survival study was carried out for a period of 30 days and animals were routinely monitored for their body weight, food and water intake, radiation sickness symptoms and mortality to fix the highest effective dose of DMA against radiation induced toxicity.
Mice were treated with DMA (200 mg/kg bw) prior to whole body exposure to 5, 6, 8, 9 & 10 Gy. DRF was calculated ratio of LD50/30 mice treated with both DMA and radiation to the LD50/30 of mice treated with saline and radiation. Similarly survival with different route of administration of DMA was studied at 8 and 9 Gy TBI.

Balb/c mice spleen = test: Endogenous spleen colony forming assay; format: in vivo, mouse
Procedure: Group 1, sham control (normal saline treated); Group 2, DMA treated (200 mg/kg bw); Group 3, radiation control (whole body exposure to 8Gy); Group 4, treated with DMA (200 mg/kg bw) prior to whole body exposure to 8Gy. Mice (6 animals each) were irradiated, 2 h post-administration of DMA. The mice were sacrificed on day 10 and spleens were removed, blotted free of blood, weighed and the spleen index was calculated [spleen index=(spleen weight/body weight)×100]. Subsequently spleens were fixed in Bouin's fixative for 15 min and the number of macroscopic spleen cell colonies was counted manually.

[6] = 50 mg/kg i.v. before 8Gy TBI, 3 days postirradiation
[7] = melanoma TBM, 50 mg/kg i.v., 8Gy TBI

In the case of `COc1ccc(-c2nc3cc(-c4nc5cc(N6CCN(C)CC6)ccc5[nH]4)ccc3[nH]2)cc1OC` [DMA, 5-(4-methylpiperazin-1-yl)-2-[2′-(3,4-dimethoxyphenyl)-5′-benzimidazolyl]benzimidazole], the “Active S-phase cells in intestine” value (Balb/c intestinal cells; 50 mg/kg i.v. pretreatment, 8Gy TBI) is given as 11%, the “Cell proliferation in intestine tissue” value (Balb/c intestinal cells; DMA treated vs control) is given as “same” and the “Protection of tumor tissues” value [1] is given as “no protection to tumor tissues”. For the same molecule, the Intestine histology [2, 6] was “restored the crypts and villi architecture”, the Liver histology [2, 6] was “reduction in the number of pyknotic and inflammatory kupffer cells” and the Spleen histology [2, 6] was “restored the white pulp”. The “Intestine histology, tumor bearing mice” value [2, 7] was “intact better heighted villi and crypts”, the “Lung alveolar structure, tumor bearing mice” value [2, 7] was “less destructured” and the “Spleen histology, tumor bearing mice” value [2, 7] was “structural retention through white and red pulp protection”. The “Phosphorylated Akt, GSK3β and IKKα/β” value ([3]; DMA treated intestine tissue prior to irradiation) was “higher level”, the “Kinase activity of Akt” value ([3]; DMA+Radiation vs control and radiation, intestine) was “higher kinase activity” and the “NFκB p65 expression” value ([3]; DMA+Radiation, intestine) was “higher expression”. The Akt kinase activity [4] was “higher Akt kinase activity”, the “Phosphorylated Akt level” value ([5]; DMA pretreated to irradiation of TBM vs other conditions) was “lower” and the “Akt/NFκB signaling in response to radiation” value ([5]; tumor tissues of TBM, 50 mg/kg i.v. + 8Gy TBI) was “does not modulate”. It also gave a Survival / radioprotection (Balb/c mice; 50 mg/kg i.v. 2 h prior to 8Gy TBI) of 100%, a Survival (Balb/c mice; 50 mg/kg i.v., 9Gy TBI) of 50% and a Radioprotection (Balb/c mice; 50 mg/kg s.c. 3 h prior to 8Gy TBI) of 20%. The 30-days survival rate (Balb/c mice; 100 mg/kg oral before 8Gy TBI) was 54%, the Survival (Balb/c mice; 125 mg/kg i.p. 2 h before 8Gy) was 55% and the 30-days survival rate (Balb/c mice; 150 mg/kg oral before 8Gy TBI) was 70%. The 30-days survival rate (Balb/c mice; 200 mg/kg oral before 8Gy TBI (dose finding, FIG. 4C)) was 80%, the 30-day survival rate (Balb/c mice; 200 mg/kg oral, 5Gy TBI) was 100% and the 30-day survival rate (Balb/c mice; 200 mg/kg oral, 6Gy TBI) was 100%. The 30-day survival rate (Balb/c mice; 200 mg/kg oral, 8Gy TBI (FIG. 4D)) was 82%, the 30-day survival rate (Balb/c mice; 200 mg/kg oral, 9Gy TBI) was 18% and the 30-day survival rate (Balb/c mice; 200 mg/kg oral, 10Gy TBI) was 12%. The “Dose reduction factor (DRF)” value (Balb/c mice; 200 mg/kg oral, ratio of LD50/30, Balb/c mice) was 1.28, the “Effect of DMA by itself on rodents” value (Balb/c mice; DMA only) was “no effect” and the “Body weight after TBI” value (Balb/c mice; DMA pre-treated mice, after initial 9 days of radiation) was “considerable weight regain”. The Spleen index (Balb/c mice spleen; 200 mg/kg oral before 8Gy, day 10) was 0.33±0.02, the Spleen index (Balb/c mice spleen; DMA treatment only, 200 mg/kg) was 0.41±0.05 and the “Endogenous colony forming units” value (Balb/c mice spleen; DMA+Radiation, 10th day post-irradiation) was 11.25±1.7.
